Measurements as given in PubChem BioAssay AID1963963 (Molecular Pharmacology Branch, DTP, NCI, 2024).

Tested on: 958667-338-R-J2-PDC tumor spheroids viability
Experiment: Anticancer human tumor 958667-338-R-J2-PDC patient-derived colon adenocarcinoma cell line growth inhibition [PI3K]
Settings: spheroids with HUVEC and MSC; for viability, T/C: stronger effect = lower value
Summary of the method: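 Stroma-containing spheroids: tumor line, pooled-donor HUVEC, hMSC. Treatments: targeted agents with PI3K inhibitors. Dosing: clinically relevant, half-log spacing, 10 microM ceiling without known Cmax. Read-out: cell viability.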

[1] = curve of first compound, second compound 0.00316 µM
[2] = curve of first compound, second compound 0.01 µM
[3] = curve of first compound, second compound 0.0316 µM
[4] = curve of first compound, second compound 0.1 µM
[5] = curve of first compound, second compound 0.316 µM
[6] = curve of first compound, second compound 1 µM
[7] = second compound 0.00316 µM, first compound 0.0316 µM
[8] = second compound 0.00316 µM, first compound 0.1 µM
[9] = second compound 0.00316 µM, first compound 0.316 µM
[10] = second compound 0.00316 µM, first compound 1 µM
[11] = second compound 0.00316 µM, first compound 3.16 µM
[12] = second compound 0.00316 µM, first compound 10 µM
[13] = second compound 0.01 µM, first compound 0.0316 µM
[14] = second compound 0.01 µM, first compound 0.1 µM
[15] = second compound 0.01 µM, first compound 0.316 µM
[16] = second compound 0.01 µM, first compound 1 µM
[17] = second compound 0.01 µM, first compound 3.16 µM
[18] = second compound 0.01 µM, first compound 10 µM
[19] = second compound 0.0316 µM, first compound 0.0316 µM
[20] = second compound 0.0316 µM, first compound 0.1 µM
[21] = second compound 0.0316 µM, first compound 0.316 µM
[22] = second compound 0.0316 µM, first compound 1 µM
[23] = second compound 0.0316 µM, first compound 3.16 µM
[24] = second compound 0.0316 µM, first compound 10 µM
[25] = second compound 0.1 µM, first compound 0.0316 µM
[26] = second compound 0.1 µM, first compound 0.1 µM
[27] = second compound 0.1 µM, first compound 0.316 µM
[28] = second compound 0.1 µM, first compound 1 µM
[29] = second compound 0.1 µM, first compound 3.16 µM
[30] = second compound 0.1 µM, first compound 10 µM
[31] = second compound 0.316 µM, first compound 0.0316 µM
[32] = second compound 0.316 µM, first compound 0.1 µM
[33] = second compound 0.316 µM, first compound 0.316 µM
[34] = second compound 0.316 µM, first compound 1 µM
[35] = second compound 0.316 µM, first compound 3.16 µM
[36] = second compound 0.316 µM, first compound 10 µM
[37] = second compound 1 µM, first compound 0.0316 µM
[38] = second compound 1 µM, first compound 0.1 µM
[39] = second compound 1 µM, first compound 0.316 µM
[40] = second compound 1 µM, first compound 1 µM
[41] = second compound 1 µM, first compound 3.16 µM
[42] = second compound 1 µM, first compound 10 µM
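Also: spheroids exposed to compounds for seven days before readout.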

CC(C)NCC(C(=O)N1CCN(c2ncnc3c2C(C)CC3O)CC1)c1ccc(Cl)cc1 (stereo not given) + COc1c(OCCCN2CCOCC2)ccc2c3n(c(=NC(=O)c4cnc(N)nc4)nc12)CCN3
IC50 [1]: > 10 µM
IC50 [2]: > 10 µM
IC50 [3]: > 10 µM
IC50 [4]: 4.02 µM
IC50 [5]: < 0.0316 µM
IC50 [6]: < 0.0316 µM
viability, T/C [7]: 94.4%
viability, T/C [8]: 88%
viability, T/C [9]: 74%
viability, T/C [10]: 95.7%
viability, T/C [11]: 90.7%
viability, T/C [12]: 60.2%
viability, T/C [13]: 97.8%
viability, T/C [14]: 73.9%
viability, T/C [15]: 69%
viability, T/C [16]: 100%
viability, T/C [17]: 54.8%
viability, T/C [18]: 66.2%
viability, T/C [19]: 68.7%
viability, T/C [20]: 69.3%
viability, T/C [21]: 67.8%
viability, T/C [22]: 77.7%
viability, T/C [23]: 71.3%
viability, T/C [24]: 50.6%
viability, T/C [25]: 61.6%
viability, T/C [26]: 43.2%
viability, T/C [27]: 67.4%
viability, T/C [28]: 60.5%
viability, T/C [29]: 51.1%
viability, T/C [30]: 37.4%
viability, T/C [31]: 36.9%
viability, T/C [32]: 35.3%
viability, T/C [33]: 29.8%
viability, T/C [34]: 38.1%
viability, T/C [35]: 27.2%
viability, T/C [36]: 23.1%
viability, T/C [37]: 17.6%
viability, T/C [38]: 18.7%
viability, T/C [39]: 15.4%
viability, T/C [40]: 19.5%
viability, T/C [41]: 16.2%
viability, T/C [42]: 14.8%

Cn1ncc(Cl)c1-c1cc(C(=O)NC(CN)Cc2cccc(F)c2)sc1Cl (stereo not given) + COc1c(OCCCN2CCOCC2)ccc2c3n(c(=NC(=O)c4cnc(N)nc4)nc12)CCN3
IC50 [1]: 3.41 µM
IC50 [2]: 3.24 µM
IC50 [3]: 1.7 µM
IC50 [4]: 0.696 µM
IC50 [5]: < 0.0316 µM
IC50 [6]: < 0.0316 µM
viability, T/C [7]: 89.1%
viability, T/C [8]: 109%
viability, T/C [9]: 75.5%
viability, T/C [10]: 76.2%
viability, T/C [11]: 46.4%
viability, T/C [12]: 43%
viability, T/C [13]: 88.9%
viability, T/C [14]: 76.7%
viability, T/C [15]: 87.8%
viability, T/C [16]: 75.5%
viability, T/C [17]: 50.6%
viability, T/C [18]: 32%
viability, T/C [19]: 90.3%
viability, T/C [20]: 74.6%
viability, T/C [21]: 76.2%
viability, T/C [22]: 58.6%
viability, T/C [23]: 38.9%
viability, T/C [24]: 26.5%
viability, T/C [25]: 59.4%
viability, T/C [26]: 65.7%
viability, T/C [27]: 64.5%
viability, T/C [28]: 43.5%
viability, T/C [29]: 27.9%
viability, T/C [30]: 21.1%
viability, T/C [31]: 44.9%
viability, T/C [32]: 38.8%
viability, T/C [33]: 32.9%
viability, T/C [34]: 31.6%
viability, T/C [35]: 21.1%
viability, T/C [36]: 14.1%
viability, T/C [37]: 20.8%
viability, T/C [38]: 18.2%
viability, T/C [39]: 19.9%
viability, T/C [40]: 20.5%
viability, T/C [41]: 15.9%
viability, T/C [42]: 12.5%

Cn1cnc2c(F)c(Nc3ccc(Br)cc3Cl)c(C(=O)NOCCO)cc21
viability, T/C (compound 0.00949 µM): 96.5% [middle of 4 runs]
viability, T/C (compound 0.0949 µM): 85.5% [middle of 4 runs]
viability, T/C (compound 0.3 µM): 54.2% [middle of 4 runs]
viability, T/C (compound 0.949 µM): 35.9% [middle of 4 runs]
viability, T/C (compound 3 µM): 20.5% [middle of 4 runs]
IC50 (curve of compound): 377 nM [middle of 4 runs]
